Entries after “also recorded” stand apart in the source; their conditions may differ. Where two headings read alike, the source gives them in different places.
Tests used:
[1] = test system: subcutaneous U87 xenograft tumors; assay: Subcutaneous U87 xenograft in SCID mice; conditions: Spironolactone 25 mg/kg i.p. 5 days per week from day 8; LP-184 4 mg/kg i.v. every other day for 4 doses from day 9
Procedure: (§1) SCID mice bearing pre-established subcutaneous U87 xenograft tumors were treated with Spironolactone alone, LP-184 alone or their combination. Spironolactone treatment began on post implantation day 8 at 25 mg/kg intraperitoneally 5 days per week, and LP-184 on day 9 at 4 mg/kg intravenously every other day for 4 doses.

[2] = test system: M1123 (glioblastoma cell line); assay: M1123 cell viability in vitro; format: cell-based
[3] = test system: subcutaneous U87 xenograft tumors; conditions: beginning on ~day 25
Procedure: as §1

[4] = test system: Mayo39 (Glioblastoma cell line); assay: Mayo39 cell viability in vitro; format: cell-based
[5] = test system: U87 (glioblastoma cell line); assay: U87 cell growth / survival / viability in vitro; format: cell-based; conditions: for IC50: Homo sapiens, U-87 MG
[6] = test system: U87, M1123 and Mayo39 glioblastoma cultures; assay: GBM cell viability, pooled statement on IC50 shift; format: cell-based; conditions: with 5 μM Spironolactone
[7] = test system: RPMI 8226 human myeloma cell lines; assay: RPMI 8226 cell growth / cytotoxicity in vitro; format: cell-based
[8] = test system: ACHN (renal cell carcinoma cell line); assay: ACHN cell growth / survival in vitro; format: cell-based; conditions: 10 μM spironolactone alone
[9] = test system: CAKI-2 (papillary renal cell carcinoma cell line); assay: CAKI-2 cell growth / survival in vitro; format: cell-based; conditions: spironolactone alone
ERCC3 = target: T1, ERCC3 (Homo sapiens, UniProt P19447); assay: ERCC3 western blot in glioblastoma cell lines; format: cell-based; conditions: 10 μM spironolactone, over 24-72 hours
T1 construct: endogenous in cells; host or cells: M1123, Mayo39, U87 glioblastoma cell lines
T1 sequence (P19447 1-782): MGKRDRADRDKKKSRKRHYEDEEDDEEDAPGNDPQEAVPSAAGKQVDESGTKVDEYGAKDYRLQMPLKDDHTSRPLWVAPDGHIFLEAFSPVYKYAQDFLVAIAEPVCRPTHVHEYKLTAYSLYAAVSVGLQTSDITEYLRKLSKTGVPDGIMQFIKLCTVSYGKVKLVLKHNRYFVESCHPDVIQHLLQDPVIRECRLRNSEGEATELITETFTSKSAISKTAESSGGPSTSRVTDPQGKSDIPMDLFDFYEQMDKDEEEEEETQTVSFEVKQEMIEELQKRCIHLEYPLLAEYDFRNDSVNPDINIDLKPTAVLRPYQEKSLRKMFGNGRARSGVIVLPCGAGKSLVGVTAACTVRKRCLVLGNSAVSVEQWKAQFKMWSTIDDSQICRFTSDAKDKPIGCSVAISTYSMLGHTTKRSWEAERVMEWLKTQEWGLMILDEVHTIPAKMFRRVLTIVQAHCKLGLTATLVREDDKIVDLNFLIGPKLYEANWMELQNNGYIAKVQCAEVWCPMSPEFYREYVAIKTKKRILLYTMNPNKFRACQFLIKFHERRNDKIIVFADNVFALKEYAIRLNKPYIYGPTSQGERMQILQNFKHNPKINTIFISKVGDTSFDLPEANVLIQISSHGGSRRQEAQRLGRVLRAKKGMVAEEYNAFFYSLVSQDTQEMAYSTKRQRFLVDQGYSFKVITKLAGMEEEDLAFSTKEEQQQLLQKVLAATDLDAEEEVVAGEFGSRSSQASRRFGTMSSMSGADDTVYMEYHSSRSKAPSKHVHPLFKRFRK
Procedure: Representative images show quantification of ERCC3 western blot intensity with significant Spironolactone-mediated ERCC3 downregulation over 24-72 hours in different glioblastoma cell lines.

[10] = test system: CHLA-06 (atypical teratoid rhabdoid tumor cell line); assay: CHLA-06 cell growth / survival in vitro; format: cell-based; conditions: spironolactone alone (10 μM)
[11] = test system: 22RV1 (prostate cell line); assay: 22RV1 cell growth / survival in vitro; format: cell-based; conditions: 10 μM spironolactone alone
[12] = LP-184 alone, read-out: LP-184 alone IC50 [mean value
[13] = with 5 uM Spironolactone, read-out: LP-184 IC50 [mean value, nM] in combination with 5 uM Spironolactone

| IC50 [2, 12] [nM] | IC50 [2, 13] [nM] | IC50 [4, 12] [nM] | IC50 [4, 13] [nM] | decrease in LP-184 IC50s [6] | ERCC3 protein level (western blot) (ERCC3; M1123) | ERCC3 protein level (western blot) (ERCC3; Mayo39) | ERCC3 protein level (western blot) (ERCC3; U87) | Compound | tumor growth / tumor regression [1] | tumor regrowth (animals) [3] | IC50 [5, 12] [nM] | IC50 [5, 13] [nM] | reduction of LP-284 IC50 ([7]; by 10 μM spironolactone) [fold] | cell growth rates [8] | cytotoxicity ([7]; 10 μM spironolactone treatment alone) | growth rates [9] | growth rates [10] | cell growth rates [11] | growth rates ([5]; spironolactone alone) |
| --- | --- | --- | --- | --- | --- | --- | --- | --- | --- | --- | --- | --- | --- | --- | --- | --- | --- | --- | --- |
| 151 | 39.7 | 313 | 94.3 | 3-6 fold | – | – | – | CC1=C(CN(O)C(N)=O)C2=C(C)C3(CC3)[C@@](C)(O)C(=O)C2=C1 [LP-184, (−)-hydroxyureamethyl acylfulvene] | complete or near complete tumor regression | 5/5 | 250 | 37.6 | – | – | – | – | – | – | – |
| – | – | – | – | – | – | – | – | CC1=C(CN(O)C(N)=O)C2=C(C)C3(CC3)[C@](C)(O)C(=O)C2=C1 [LP-284, (+)-hydroxyureamethyl acylfulvene] | – | – | – | – | 2.4 | – | – | – | – | – | – |
| – | – | – | – | – | time-dependent depletion | time-dependent depletion | time-dependent depletion | CC(=O)SC1CC2=CC(=O)CCC2(C)C2CCC3(C)C(CCC34CCC(=O)O4)C12 (stereo not drawn) [Spironolactone, 7α-Acetylthiospirolactone] | no effect on tumor growth | – | – | – | – | did not change the cell growth rates | did not cause cytotoxicity | did not substantially change the growth rates | did not substantially change the growth rates; also recorded: did not change the cell growth rates | did not change the cell growth rates | did not substantially change the growth rates |
